Assay results published in PMC5589893, “Identification of Aspergillus fumigatus UDP-Galactopyranose Mutase Inhibitors” (Scientific Reports, 2017).

Assays:
[1] = system: A. fumigatus; experiment: Toxicity study, growth in PDA medium at 37 °C; format: cell-based, Aspergillus fumigatus
[2] = target: T1, A. fumigatus UGM (Aspergillus fumigatus, UniProt Q4W1X2); experiment: biochemical; format: biochemical; conditions: for Type of Inhibition: NADPH oxidation at different concentrations of inhibitor and NADPH
T1 construct: 8x His-tag (TEV-cleavable) (cleaved yes); made in house; host or cells: E. coli BL21 Turbo (DE3)
Protocol: (§1) The reaction was quenched with the addition of 70 µL acetonitrile. […] Samples were run at a flow rate of 0.5 mL/min for 5 min. IC50 was also determined by following NADPH oxidation at 340 nm. […] Data was analyzed using KaleidaGraph software. […] Global fitting was performed with Graphpad Prims 6 software (La Jolla, CA).

[3] = target: T1, A. fumigatus UGM; experiment: biochemical; format: biochemical
Protocol: as §1

[4] = system: A. fumigatus; experiment: Congo red susceptibility assay; format: cell-based, Aspergillus fumigatus; conditions: 100 µM compound with congo red (0.5 and 1 mg/mL), 48 h, 37 °C
[5] = system: UDP-glucuronosyltransferases; conditions: cited from earlier work
[6] = target: T1, A. fumigatus UGM; experiment: biochemical; format: binding; conditions: 20 µM compound, 2% DMSO, 30 nM ADP-TAMRA, normalized to negative control; read-out: Normalized anisotropy (%)
Protocol: High-throughput screening of the Spectrum Collection library using the FP assay with the ADP-TAMRA[22] probe was performed at the Virginia Tech Center for Drug Discovery Screening Laboratory. 384 well plates (Greiner 784900) were used and the reaction volume was 15 µL using 25 mM HEPES buffer (pH 7.0). For the screening, 30 nM of ADP-TAMRA with 6.7 µM UGM (based on the Bradford assay) and 20 µM of library compound were used, with a final DMSO concentration of 2%. Fluorescence polarization measurements were performed with excitation at 544 nm and emission at 584 nm, using a wavelength cutoff of 570 nm. Anisotropy measurements were performed after 30 and 120 minutes of incubation at 25 °C. Anisotropy values were normalized to the values obtained in the negative control sample: UGM, ADP-TAMRA, and DMSO (high anisotropy values). The positive control consisted of ADP-TAMRA and DMSO (low anisotropy values). The Z prime (Z′) value was determined using equation (1) where, σN,P and μN,P represent the standard deviation and the mean value the of the negative and positive controls respectively.1 Z′=1−3(σN+σP)/|μN−μP|

[7] = target: T2, UGM (Aspergillus fumigatus, UniProt Q4W1X2); experiment: ThermoFAD melting temperature assay; format: binding; conditions: 20, 100 and 1000 µM compound, 2% DMSO, 1 mg/mL UGM
T2 construct: 8x His-tag (TEV-cleavable) (cleaved yes); made in house; host or cells: E. coli BL21 Turbo (DE3)
Protocol: The melting temperature[25] of UGM was determined by measuring the FAD fluorescence as a function of temperature (20–90 °C, 1 °C step) following the reported ThermoFAD procedure. The reaction mix consisted of 20 µL of 1 mg/mL UGM, 2% DMSO in 50 mM potassium phosphate buffer, pH 7.0. As a reference and positive control, the Tm was calculated in the presence DMSO and UDP (10 mM). Different concentrations of inhibitors were added in the range of 0–1 mM at a final DMSO concentration of 2% in the above-mentioned buffer. All experiments were done in triplicate.

[8] = target: T1, A. fumigatus UGM; experiment: biochemical; format: binding
Protocol: Binding of inhibitors to UGM was measured with an Auto-ITC 200 ITC instrument. UGM was dialyzed in 50 mM potassium phosphate buffer, pH 7.0, for 2 h at 4 °C. In all cases, ligands were dissolved in dialysis buffer and protein and ligand were filtered with a […] membrane prior to loading. […] Inhibitor concentration in the syringe was 2 mM (2% DMSO), except for chrysin where the concentration was 600 µM (4% DMSO). […] Thermodynamic parameters were determined from ITC results using Microcal Origin version 7.0 (OriginLab) with the “ITC custom” add-on installed.

[9] = system: A. fumigatus; experiment: Thermotolerance study, growth in PDA at 50 °C; format: cell-based, Aspergillus fumigatus; conditions: 1000 µM compound, 48 h at 50 °C, vs reference
[10] = system: S. aureus strains; conditions: cited from earlier work

T1 sequence (Q4W1X2 whole entry): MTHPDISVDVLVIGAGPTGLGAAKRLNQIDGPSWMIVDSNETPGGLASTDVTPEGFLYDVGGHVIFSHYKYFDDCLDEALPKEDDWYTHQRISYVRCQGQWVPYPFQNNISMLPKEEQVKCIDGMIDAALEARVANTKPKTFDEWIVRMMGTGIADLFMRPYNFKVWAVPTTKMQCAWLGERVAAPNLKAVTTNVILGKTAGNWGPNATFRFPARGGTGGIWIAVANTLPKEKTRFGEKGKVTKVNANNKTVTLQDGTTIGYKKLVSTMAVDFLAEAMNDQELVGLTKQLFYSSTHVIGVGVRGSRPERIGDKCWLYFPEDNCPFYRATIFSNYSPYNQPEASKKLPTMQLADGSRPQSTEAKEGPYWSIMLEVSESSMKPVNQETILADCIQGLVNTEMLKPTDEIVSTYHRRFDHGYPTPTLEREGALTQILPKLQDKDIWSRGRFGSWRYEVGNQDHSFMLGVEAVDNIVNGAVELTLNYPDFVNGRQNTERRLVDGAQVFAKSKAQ
T2 sequence (Q4W1X2 whole entry): as above

SMILES: COc1ccc([C@@H]2CC(=O)c3c(O)cc(O)cc3O2)cc1O [(2S)-hesperetin]
- A. fumigatus toxicity ([1]; 1000 µM): no A. fumigatus toxicity
- A. fumigatus toxicity under optimal growth conditions ([1]; 600 and 1000 µM, 24-48 h): not toxic
- Type of Inhibition [2]: Competitive (NADPH)
- Type of Inhibition ([2]; listed as (2S)-Hesperetin): competitive against NADPH
- Inhibition of NADPH oxidation ([2]; absence of UDP-Galf): inhibited NADPH oxidation
- Inhibition of product formation, concentration dependence ([3]; UPLC at 20 and 200 µM compound, 2% DMSO): concentration dependent potency
- Concentration effect ([3]; inhibition at 200 µM vs 20 µM compound, UPLC): +
- inhibition at 200 µM ([3]; read-out: Inhibition > 50 %): > 50%
- Growth decrease with congo red [4]: ~ 50%
- Effect on UDP-glucuronosyltransferases [5]: inhibitory effect
- remaining activity at 20 µM [6]: 17%
- Increase of Tm of UGM [7]: ~ 2.7 °C
- Kd [8]: 31 ± 6 µM
- T•∆S ([8]; ITC, 25 °C): 2.1 ± 0.2 kcal/mol
- ∆G ([8]; ITC, 25 °C): -6.1 ± 0.4 kcal/mol
- ∆H ([8]; ITC, 25 °C): -4.1 ± 0.4 kcal/mol
- Delay in colony development [9]: ~ 50%
- Biofilm formation inhibition [10]: > 70%
